pIC50: −log10 of the molar value.
What was measured:
[1] = Pharmacokinetics in monkeys, SC dosing; format: in vivo, cynomolgus monkeys; conditions: for half-life: cynomolgus monkey, in vivo, male cynomolgus monkeys, SC single dose 0.2 mg/kg, 0.1% bovine serum albumin in phosphate buffered saline, mean; for persistence in the blood stream as compared to tirzepatide: cynomolgus monkeys, SC 0.2 mg/kg
Method: (§1) Subcutaneous (SC) dosing of the compounds in a vehicle of 0.1% bovine serum albumin in phosphate buffered saline solution was performed with male cynomolgus monkeys. […] Samples were obtained at 1, 4, 8, 12, 24, 48, 72, 96, 120, 168, 192, 240 and 336 hours after the single dose was administered.

[2] = tested on: mice fed Gubra amylin NASH (GAN) diet; experiment: Biological effects in GAN diet NASH mice; format: in vivo; conditions: after two weeks, 10 mg/kg group; for Gal-3 Total: liver Galectin-3, histological quantitative assessment; for TG Total: liver triglycerides, GAN diet NASH mice; for α-SMA Total: liver α-smooth muscle actin, histological quantitative assessment
Method: NASH was induced in mice by feeding mice a Gubra amylin NASH (GAN) diet as described in Boland et al. World J Gastroenterol. 2019, 25(33): 4904-4920. One week prior to administration of a first dose of compounds, the mice were weighed and randomized, and their food intake was measured. Mice were randomly assigned to dosing groups, with twelve mice per group. […] Compound dose titration (nmol/kg): 0.6 (day 0), 1.2 (day 1), 2.4 (day 2), 4.8 (day 3), 4.8 (day 4), 12 (day 5), 30.0 (from day 6).
After two weeks, animals were sacrificed. Plasma enzymes (P-ALT (alanine aminotransferase) and P-AST (aspartate aminotransferase)), total plasma triglycerides, and total plasma cholesterol were measured, and terminal necropsy of each liver was carried out, determining relative liver weight as a percentage of body weight, assaying total liver biochemistry including total liver triglycerides, plasma insulin and total liver cholesterol, as well as histological evaluation of Galectin-3, and alpha-smooth muscle actin.

[3] = Pharmacokinetics studies of formulations, SC dosing; format: in vivo, cynomolgus monkeys; conditions: for half-life: cynomolgus monkey, in vivo, SC 0.2 mg/kg, mean
Method: as §1
Formulation 1 included the compound in a vehicle of 0.1% bovine serum albumin in phosphate buffered saline solution.

GLP-1 receptor [4] = biological target: T1, GLP-1 receptor (Homo sapiens, UniProt P43220); experiment: HSA modulated binding assay, GLP-1 receptor; conditions: for pIC50: IC 50, GLP-1 receptor
T1 sequence (P43220 24-463): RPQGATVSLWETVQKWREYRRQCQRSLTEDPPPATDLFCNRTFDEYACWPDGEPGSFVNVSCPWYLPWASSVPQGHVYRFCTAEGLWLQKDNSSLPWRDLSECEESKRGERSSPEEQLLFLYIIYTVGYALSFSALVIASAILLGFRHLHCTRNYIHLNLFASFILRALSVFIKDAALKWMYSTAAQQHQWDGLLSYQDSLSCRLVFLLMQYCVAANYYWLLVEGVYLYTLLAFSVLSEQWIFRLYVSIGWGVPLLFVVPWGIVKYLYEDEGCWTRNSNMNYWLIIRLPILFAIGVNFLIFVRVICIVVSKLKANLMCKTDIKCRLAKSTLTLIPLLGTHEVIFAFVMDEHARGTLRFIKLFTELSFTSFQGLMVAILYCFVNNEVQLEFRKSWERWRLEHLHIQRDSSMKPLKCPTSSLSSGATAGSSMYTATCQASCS

GLP-1 receptor [5] = biological target: T1, GLP-1 receptor; experiment: TagLite binding assay, GLP-1 receptor; conditions: for % Binding avg at CMax: GLP-1 receptor
GIP receptor [6] = biological target: T2, GIP receptor (Homo sapiens, UniProt P48546); experiment: HSA modulated binding assay, GIP receptor; conditions: for % Binding avg at CMax: GIP receptor; for pIC50: IC 50, GIP receptor
T2 sequence (P48546 22-466): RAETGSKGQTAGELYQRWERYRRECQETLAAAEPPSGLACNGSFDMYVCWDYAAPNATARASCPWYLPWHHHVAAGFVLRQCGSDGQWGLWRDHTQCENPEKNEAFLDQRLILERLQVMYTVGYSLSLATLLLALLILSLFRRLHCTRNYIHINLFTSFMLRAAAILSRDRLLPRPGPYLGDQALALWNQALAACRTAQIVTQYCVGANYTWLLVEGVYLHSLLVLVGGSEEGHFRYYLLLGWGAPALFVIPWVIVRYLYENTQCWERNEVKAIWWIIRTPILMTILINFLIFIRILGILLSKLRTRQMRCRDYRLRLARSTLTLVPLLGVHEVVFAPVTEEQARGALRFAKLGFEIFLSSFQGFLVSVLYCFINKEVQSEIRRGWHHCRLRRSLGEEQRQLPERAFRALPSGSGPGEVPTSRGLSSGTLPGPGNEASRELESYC

GIP receptor [7] = biological target: T2, GIP receptor; experiment: TagLite binding assay, GIP receptor; conditions: for % Binding avg at CMax: GIP receptor

Molecule: CC[C@H](C)[C@H](NC(=O)[C@H](CC(C)C)NC(=O)[C@H](Cc1c[nH]c2ccccc12)NC(=O)[C@H](CCC(N)=O)NC(=O)[C@@H](NC(=O)[C@H](Cc1ccccc1)NC(=O)[C@H](C)NC(=O)[C@H](CCCCNC(=O)COCCOCCNC(=O)COCCOCCNC(=O)CC[C@H](NC(=O)CCCCCCCCCCCCCCCCCCP(=O)(O)O)C(=O)O)NC(=O)[C@H](CCC(N)=O)NC(=O)[C@H](C)NC(=O)[C@@H](NC(=O)[C@H](CCCCN)NC(=O)[C@H](CC(=O)O)NC(=O)[C@H](CC(C)C)NC(=O)C(C)(C)NC(=O)[C@@H](NC(=O)[C@H](CO)NC(=O)[C@H](Cc1ccc(O)cc1)NC(=O)[C@H](CC(=O)O)NC(=O)[C@H](CO)NC(=O)[C@@H](NC(=O)[C@H](Cc1ccccc1)NC(=O)[C@@H](NC(=O)CNC(=O)[C@H](CCC(=O)O)NC(=O)C(C)(C)NC(=O)[C@@H](N)Cc1ccc(O)cc1)[C@@H](C)O)[C@@H](C)O)[C@@H](C)CC)[C@@H](C)CC)C(C)C)C(=O)N[C@@H](C)C(=O)NCC(=O)NCC(=O)N1CCC[C@H]1C(=O)N[C@@H](CO)C(=O)N[C@@H](CO)C(=O)NCC(=O)N[C@@H](C)C(=O)N1CCC[C@H]1C(=O)N1CCC[C@H]1C(=O)N1CCC[C@H]1C(=O)N[C@@H](CO)C(N)=O [Compound 4]
- half-life [1]: 118 h
- persistence in the blood stream as compared to tirzepatide [1]: significantly greater persistence
- Gal-3 Total [2]: 137 ± 15 mg
- TG Total [2]: 70 ± 5 mg per/ liver
- α-SMA Total [2]: 102 ± 10 mg
- persistence in the blood stream as compared to tirzepatide in the identical formulation ([3]; Formulation 1 and Formulation 2): significantly greater persistence
- half-life ([3]; Formulation 1 (0.1% bovine serum albumin in phosphate buffered saline)): 106 h
- half-life ([3]; Formulation 2 (40% propylene glycol and 60% 10 mM pH 6 citrate buffer)): 120 h

Molecule: CC[C@H](C)[C@H](NC(=O)[C@H](CC(C)C)NC(=O)[C@H](Cc1c[nH]c2ccccc12)NC(=O)[C@H](CCC(N)=O)NC(=O)[C@@H](NC(=O)[C@H](Cc1ccccc1)NC(=O)[C@H](C)NC(=O)[C@H](CCCCNC(=O)COCCOCCNC(=O)COCCOCCNC(=O)CC[C@H](NC(=O)CCCCCCCCCCCCCCCCCCC(=O)O)P(=O)(O)O)NC(=O)[C@H](CCC(N)=O)NC(=O)[C@H](C)NC(=O)[C@@H](NC(=O)[C@H](CCCCN)NC(=O)[C@H](CC(=O)O)NC(=O)[C@H](CC(C)C)NC(=O)C(C)(C)NC(=O)[C@@H](NC(=O)[C@H](CO)NC(=O)[C@H](Cc1ccc(O)cc1)NC(=O)[C@H](CC(=O)O)NC(=O)[C@H](CO)NC(=O)[C@@H](NC(=O)[C@H](Cc1ccccc1)NC(=O)[C@@H](NC(=O)CNC(=O)[C@H](CCC(=O)O)NC(=O)C(C)(C)NC(=O)[C@@H](N)Cc1ccc(O)cc1)[C@@H](C)O)[C@@H](C)O)[C@@H](C)CC)[C@@H](C)CC)C(C)C)C(=O)N[C@@H](C)C(=O)NCC(=O)NCC(=O)N1CCC[C@H]1C(=O)N[C@@H](CO)C(=O)N[C@@H](CO)C(=O)NCC(=O)N[C@@H](C)C(=O)N1CCC[C@H]1C(=O)N1CCC[C@H]1C(=O)N1CCC[C@H]1C(=O)N[C@@H](CO)C(N)=O [Compound 8]
- Gal-3 Total [2]: 117 ± 12 mg
- TG Total [2]: 75 ± 7 mg per/ liver
- α-SMA Total [2]: 83 ± 8 mg

Molecule: CC[C@H](C)[C@H](NC(=O)[C@H](CC(C)C)NC(=O)[C@H](Cc1c[nH]c2ccccc12)NC(=O)[C@H](CCC(N)=O)NC(=O)[C@@H](NC(=O)[C@H](Cc1ccccc1)NC(=O)[C@H](C)NC(=O)[C@H](CCCCNC(=O)COCCOCCNC(=O)COCCOCCNC(=O)CC[C@H](NC(=O)CCCCCCCCCCCCCCCCCCP(=O)(O)O)P(=O)(O)O)NC(=O)[C@H](CCC(N)=O)NC(=O)[C@H](C)NC(=O)[C@@H](NC(=O)[C@H](CCCCN)NC(=O)[C@H](CC(=O)O)NC(=O)[C@H](CC(C)C)NC(=O)C(C)(C)NC(=O)[C@@H](NC(=O)[C@H](CO)NC(=O)[C@H](Cc1ccc(O)cc1)NC(=O)[C@H](CC(=O)O)NC(=O)[C@H](CO)NC(=O)[C@@H](NC(=O)[C@H](Cc1ccccc1)NC(=O)[C@@H](NC(=O)CNC(=O)[C@H](CCC(=O)O)NC(=O)C(C)(C)NC(=O)[C@@H](N)Cc1ccc(O)cc1)[C@@H](C)O)[C@@H](C)O)[C@@H](C)CC)[C@@H](C)CC)C(C)C)C(=O)N[C@@H](C)C(=O)NCC(=O)NCC(=O)N1CCC[C@H]1C(=O)N[C@@H](CO)C(=O)N[C@@H](CO)C(=O)NCC(=O)N[C@@H](C)C(=O)N1CCC[C@H]1C(=O)N1CCC[C@H]1C(=O)N1CCC[C@H]1C(=O)N[C@@H](CO)C(N)=O [Compound 12]
- % Binding avg at CMax (GLP-1 receptor [4]; GLP-1 receptor, 0% HSA): 0.22%
- % Binding avg at CMax (GLP-1 receptor [4]; GLP-1 receptor, 2% HSA): 12.04%
- pIC50 (GLP-1 receptor [4]; 0% HSA): 6.84
- pIC50 (GLP-1 receptor [4]; 2% HSA): 6.12
- half-life [1]: 104 h
- persistence in the blood stream as compared to tirzepatide [1]: significantly greater persistence
- pIC50 (GLP-1 receptor [5]): 6.89
- % Binding avg at CMax (GLP-1 receptor [5]): 0.09%
- % Binding avg at CMax (GIP receptor [6]; 0% HSA): −3.33%
- % Binding avg at CMax (GIP receptor [6]; 2% HSA): 5.52%
- pIC50 (GIP receptor [6]; 0% HSA): 6.59
- pIC50 (GIP receptor [6]; 2% HSA): 6.36
- pIC50 (GIP receptor [7]): 6.86
- % Binding avg at CMax (GIP receptor [7]): −1.47%

Molecule: tirzepatide [reference compound]
- % Binding avg at CMax (GLP-1 receptor [4]; GLP-1 receptor, 0% HSA): −0.14%
- % Binding avg at CMax (GLP-1 receptor [4]; GLP-1 receptor, 2% HSA): 33.01%
- Ratio of HSA/No HSA (GLP-1 receptor [4]; GLP-1 receptor, binding with 2% HSA to binding with 0% HSA): 12.8
- % Binding avg at CMax (GLP-1 receptor [5]): 0.20%
- Gal-3 Total [2]: 138 ± 17 mg
- TG Total [2]: 80 ± 11 mg per/ liver
- α-SMA Total [2]: 108 ± 22 mg
- % Binding avg at CMax (GIP receptor [6]; 0% HSA): −3.05%
- % Binding avg at CMax (GIP receptor [6]; 2% HSA): 10.07%
- % Binding avg at CMax (GIP receptor [7]): −1.21%
